Results taken from US4550186A, “Binuclear copper (II) carboxylates formed from amine-carboxyboranes” (Duke University, priority 1983, dated 1985).
Read-outs that look alike come from different tables or passages of the source.

Columns and labels:
[1] = system: ribonucleic acid synthesis of Ehrlich ascites cells; experiment: In vivo uridine incorporation into ribonucleic acid; set-up: species or system mouse
Description: (§1) CF1 male mice (~30 g) were implanted with 2×10^6 Ehrlich ascites tumor cells, intraperitoneally on Day 0. Compound I was suspended by homogenation in 0.05% polysorbate.80-water and administered intraperitoneally at 10 and 20 mg/kg for 9 days to determine its effectiveness for inhibition of tumor growth. Mice were sacrificed on Day 10, and the ascites fluid was collected from the peritoneal cavity. The volume and ascrit (packed cell volume) were determined for each animal and the percent inhibition of tumor growth was calculated. For the metabolic studies, mice were treated on Days 8 and 9 with 10 mg/kg of Compound I, intraperitoneally. The animal was sacrificed on Day 10 and the ascites fluid harvested. […]
(§2) For in vivo studies, incorporation of thymidine into deoxyribonucleic acid was determined by the method of Chae et al [Proc. Am. […] The deoxyribonucleic acid was isolated and the tritium content was determined in a toluene based scintillation fluid. The deoxyribonucleic acid concentration was determined by the diphenylamine reaction using calf thymus deoxyribonucleic acid as a standard. Uridine incorporation into ribonucleic acid was determined using 10 μCi of 5,6-^3 H-uridine (22.4 Ci/mmol). […] Leucine incorporation into protein was determined by the method of Sartorelli [Biochem. Biophys. […] Protein content was determined by the Lowry procedure using bovine serum albumin as a standard.

[2] = system: protein synthesis of Ehrlich ascites cells; experiment: In vivo leucine incorporation into protein; set-up: species or system mouse
Description: as §1, §2

[3] = system: inosinic acid dehydrogenase; experiment: In vivo inosinic acid dehydrogenase activity; set-up: species or system mouse
Description: as §1, with “intraperitoneally.” for “intraperitoneally. The animal was sacrificed on Day 10 and the ascites fluid harvested.”
(§3) Carbamyl phosphate synthetase activity was determined using the reaction medium of Kalman et al [Am. […] Citrulline formed from ornithine was measured at 490 nm by the method of Archibald [J. Biol. Chem., 156, 121 (1944)]. […] The ^14 CO2 generated in 15 min was trapped in 1M KOH and counted. Thymidylate synthetase activity was determined using a post-mitochondrial supernatant (9000 g×10 min) and 5 μCi of 5-^3 H-deoxyuridine monophosphate (14 Ci/mmol) according to the method of Kampf et al [ J. Med. Chem., 19, 903 (1976)]. ^14 C-Formate incorporation into purines was determined by the method of Spassova et al [Biochem. Pharmacol., 25, 923 (1976)] using 0.5 μCi of ^14 C-formic acid (52.0 mCi/mmol). […] The Rf value for xanthine monophosphate was scraped and counted. […]

[4] = system: inosinic acid dehydrogenase; experiment: In vitro inosinic acid dehydrogenase activity; format: biochemical, mouse; details: 0.25 to 1.0 mM
Description: as §1, with “intraperitoneally.” for “intraperitoneally. The animal was sacrificed on Day 10 and the ascites fluid harvested.”
as §3

[5] = 10 mg/kg/day I.P. on Days 8 and 9

Which “3H-Uridine incorporation into ribonucleic acid” value [1, 5] does the source give for “{Cu[(CH3)3 N.BH2 CO2 ]2.(CH3)3 N.BH2 COOH} [Compound I]” here?
The value was 116 ± 10 % Control.

What about the “uridine incorporation into ribonucleic acid” value ([1]; 10 day Ehrlich ascites cells) of the same substance?
Its value is “unaffected”.

And the “3H-Leucine incorporation into protein” value [2, 5]?
Its value is 48 ± 6 % Control.

What about the “Leucine incorporation into protein inhibited” value ([2]; 10 day Ehrlich ascites cells) of the same substance?
Its value is 52%.

What about the “Inosinic acid dehydrogenase activity” value [3] of the same substance?
Its value is “essentially not affected”.

What about the “Inosinic acid dehydrogenase activity” value [3, 5] of the same substance?
Its value is 100 ± 9 % Control.

What about the “inosinic acid dehydrogenase inhibition” value [4] of the same substance?
Its value is “not inhibited”.
